Results from patent US20090232735A1, “USE OF FRUCTOSE-BASED THERAPIES FOR THE TREATMENT OF CANCER” (CEDARS-SINAI MEDICAL CENTER, priority 2005, published 2009).

Assays:
Format in all cases: cell-based, human
[1] = test system: AP1 activation in MCF-7 breast cancer cells; assay: ELISA-based transbinding AP1 assay in breast cancer cells; conditions: 5.5 mM sugar
Protocol: FIG. 12 depicts an increase in AP1 activation in fructose-treated cells in accordance with an embodiment of the present invention. MCF-7 breast cancer cells were incubated in 2 mM glucose, or 5 mM glucose or fructose for 24 h, after which nuclear extracts were incubated with a biotinylated AP-1 probe in binding buffer. AP-1/AP1 probe complexes were next conjugated to a streptavidin-coated assay plate and detected using an AP-1 specific antibody, followed by binding of a horseradish-peroxidase conjugated secondary antibody, and detection by a colorimetric reagent. *, p<0.001.
(§1) Although several signal transduction pathways are likely involved in the fructose-mediated enhanced breast cancer growth and while not wishing to be bound by any particular theory, the inventors believe that the MAP-kinase pathway is involved. The inventors have used Western blot analysis to examine the MAPK pathway in breast cancer cells incubated in 2 mM glucose, 5.5 mM glucose, and 5.5 mM fructose for 48 hours. […] Activation of MEK, and subsequently ERK results in phosphorylation of p90^Rsk, which leads to transcriptional activation of CREB and AP1, which bind to cAMP or AP1 response elements respectively, activating gene transcription and promoting cellular growth.

[2] = test system: primary cultures of fresh surgically resected pancreatic cancers; assay: BRDU uptake in primary cultures of resected pancreatic cancers; conditions: all 5 primary pancreatic cancers, 5.5 mM, 72 h
Protocol: FIG. 18 depicts BRDU incorporation by pancreatic cells in accordance with an embodiment of the present invention. Freshly resected pancreatic cancers were mechanically, and enzymatically dispersed, and cells were pre-incubated in 2 mM glucose prior to treatment with 5.5 mM glucose or fructose for 72 h. BRDU (10 μM) was added to the medium at 48 h, and BRDU-uptake quantified at 72 h.
As immortalized cell-lines, such as PANC-1 pancreatic cancer cells, can become dedifferentiated after repeated passages, and in order to translate these findings in the PANC-1 cells to patients with pancreatic cancer, the inventors also examined proliferative rates in primary cultures of fresh surgically resected pancreatic cancers, following incubation in 2 mM, and 5.5 mM glucose or 5.5 mM fructose. Briefly, after mechanical and enzymatic (trypsin and DNAse) disaggregation, aliquots of tumor cells were seeded in 6-well plates, and incubated in standard DMEM media with 10% fetal bovine serum, and 2 mM glucose, 5.5 mM glucose, or 5.5 mM fructose for 72 h. As before in the PANC-1 experiments, BRDU (10 μM) was added in the […] of incubation in the sugars, following which BRDU-uptake was quantified.

[3] = test system: MAPK pathway (pMEK, pRsk, pCREB) in MCF-7, and MDA-MB231 breast cancer cells; assay: Western blot of MAPK pathway in breast cancer cells
Protocol: FIG. 11 depicts increased breast cancer phosphorylated-MEK, phosphorylated Rsk, and phosphorylated CREB in accordance with an embodiment of the present invention. MCF-7 breast cancer cells were incubated in 2 mM glucose, 5 mM glucose or 5 mM fructose for 24 hours, after which Western blot analysis on total protein lysates was employed to examine components of the MAP kinase pathway. […] Total MEK, Rsk, and CREB levels, and β-actin served as loading controls.
as §1

In the case of `O=C(CO)[C@@H](O)[C@H](O)[C@H](O)CO` [fructose], the “increase in AP1 activation” value [1] is reported as 3 fold, the “proliferative rates (BRDU-uptake) in fructose compared to glucose” value [2] is reported as “higher proliferative rates” and the phospho-MEK expression ([3]; 5.5 mM fructose vs 5.5 and 2 mM glucose, MCF-7 and MDA-MB231) is reported as “increased expression of phospho-MEK (pMEK)”. The “phospho-Rsk and phospho-CREB” value ([3]; 5.5 mM fructose, 24 h, vs 5.5 and 2 mM glucose) was “increased phospho-Rsk (pRsk), and phospho-CREB (pCREB)”.
